Test results as given in the supplement of paper PMC11451515.

Test system: P12-Ichikawa
Assay: cell viability relative to DMSO control; higher = less cytotoxic
Settings: 48 h
Outline: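 Three leukemia lines were tested: NOMO1 and SEM at 500 cells/well and P12-Ichikawa at 1000 cells/well. Each was adapted for at least four passages in each medium and seeded in 5 μl in 1536-well plates, and library compounds in DMSO were pin-dosed from 47 μM to 0.79 nM in 11 threefold steps. After 48 h at 37°C, CellTiter-Glo One luminescence was read. Viability is a percentage relative to DMSO wells on each plate, with cell-free wells as background.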

[1] = HPLM + 10% dialyzed FBS, 0.000781 µM
[2] = HPLM + 10% dialyzed FBS, 0.00234 µM
[3] = HPLM + 10% dialyzed FBS, 0.00702 µM
[4] = HPLM + 10% dialyzed FBS, 0.0211 µM
[5] = HPLM + 10% dialyzed FBS, 0.0632 µM
[6] = HPLM + 10% dialyzed FBS, 0.19 µM
[7] = HPLM + 10% dialyzed FBS, 0.569 µM
[8] = HPLM + 10% dialyzed FBS, 1.71 µM
[9] = HPLM + 10% dialyzed FBS, 5.12 µM
[10] = HPLM + 10% dialyzed FBS, 15.4 µM
[11] = HPLM + 10% dialyzed FBS, 46.1 µM
[12] = RPMI 5 mM glucose + 10% FBS, 0.000781 µM
[13] = RPMI 5 mM glucose + 10% FBS, 0.00234 µM
[14] = RPMI 5 mM glucose + 10% FBS, 0.00702 µM
[15] = RPMI 5 mM glucose + 10% FBS, 0.0211 µM
[16] = RPMI 5 mM glucose + 10% FBS, 0.0632 µM
[17] = RPMI 5 mM glucose + 10% FBS, 0.19 µM
[18] = RPMI 5 mM glucose + 10% FBS, 0.569 µM
[19] = RPMI 5 mM glucose + 10% FBS, 1.71 µM
[20] = RPMI 5 mM glucose + 10% FBS, 5.12 µM
[21] = RPMI 5 mM glucose + 10% FBS, 15.4 µM
[22] = RPMI 5 mM glucose + 10% FBS, 46.1 µM
[23] = RPMI 5 mM glucose + 10% dialyzed FBS, 0.000781 µM
[24] = RPMI 5 mM glucose + 10% dialyzed FBS, 0.00234 µM
[25] = RPMI 5 mM glucose + 10% dialyzed FBS, 0.00702 µM
[26] = RPMI 5 mM glucose + 10% dialyzed FBS, 0.0211 µM
[27] = RPMI 5 mM glucose + 10% dialyzed FBS, 0.0632 µM
[28] = RPMI 5 mM glucose + 10% dialyzed FBS, 0.19 µM
[29] = RPMI 5 mM glucose + 10% dialyzed FBS, 0.569 µM
[30] = RPMI 5 mM glucose + 10% dialyzed FBS, 1.71 µM
[31] = RPMI 5 mM glucose + 10% dialyzed FBS, 5.12 µM
[32] = RPMI 5 mM glucose + 10% dialyzed FBS, 15.4 µM
[33] = RPMI 5 mM glucose + 10% dialyzed FBS, 46.1 µM

Row | SMILES | cell viability [1] [%] | cell viability [2] [%] | cell viability [3] [%] | cell viability [4] [%] | cell viability [5] [%] | cell viability [6] [%] | cell viability [7] [%] | cell viability [8] [%] | cell viability [9] [%] | cell viability [10] [%] | cell viability [11] [%] | cell viability [12] [%] | cell viability [13] [%] | cell viability [14] [%] | cell viability [15] [%] | cell viability [16] [%] | cell viability [17] [%] | cell viability [18] [%] | cell viability [19] [%] | cell viability [20] [%] | cell viability [21] [%] | cell viability [22] [%] | cell viability [23] [%] | cell viability [24] [%] | cell viability [25] [%] | cell viability [26] [%] | cell viability [27] [%] | cell viability [28] [%] | cell viability [29] [%] | cell viability [30] [%] | cell viability [31] [%] | cell viability [32] [%] | cell viability [33] [%]
1 | CC1=C(/C=C/C(C)=C/C=C/C(C)=C/C=C/C=C(C)/C=C/C=C(C)/C=C/C2=C(C)CCCC2(C)C)C(C)(C)CCC1 | 112 | 112 | 109 | 110 | 109 | 106 | 108 | 107 | 112 | 95.1 | 99.3 | 111 | 119 | 110 | 111 | 116 | 105 | 111 | 109 | 108 | 95.8 | 95.4 | 117 | 113 | 118 | 108 | 109 | 106 | 107 | 106 | 106 | 103 | 85.7
2 | N=C(CCSCc1csc(N=C(N)N)n1)N[S+](N)(=O)[O-] | 95.2 | 102 | 103 | 95.7 | 108 | 98.2 | 106 | 103 | 106 | 108 | 102 | 93.1 | 97.4 | 97.3 | 94 | 96.2 | 93.2 | 97.6 | 95.3 | 95.3 | 87.3 | 99.1 | 80.3 | 89.1 | 98.3 | 91 | 95.1 | 94.9 | 95 | 88.7 | 93.5 | 87.1 | 83.2
3 | CC/C(=C(/c1ccc(O)cc1)c1ccc(OCCNC)cc1)c1ccccc1 | 105 | 108 | 110 | 115 | 118 | 94.8 | 104 | 106 | 71.9 | 63 | 68.6 | 116 | 108 | 109 | 108 | 114 | 122 | 113 | 107 | 68.3 | 53.7 | 42 | 115 | 116 | 116 | 117 | 120 | 126 | 119 | 101 | 64.7 | 49.4 | 46.5
4 | CC(C)(C)c1cc(NC(=O)Nc2ccc(-c3cn4c(n3)sc3cc(OCCN5CCOCC5)ccc34)cc2)no1 | 88.7 | 99.1 | 97.4 | 108 | 95.3 | 99.4 | 104 | 101 | 94.4 | 101 | 91 | 83.8 | 89.9 | 88.1 | 89.2 | 86 | 88.9 | 86.4 | 82.5 | 82.6 | 80.3 | 85.6 | 93.4 | 91.6 | 93.1 | 88.9 | 96.6 | 92.1 | 101 | 92.4 | 87.7 | 93.8 | 88.5
5 | CC(C)NCC(O)COc1ccc(COCCOC(C)C)cc1 (stereo unspecified) | 115 | 117 | 105 | 103 | 113 | 118 | 112 | 96.5 | 92.6 | 107 | 99.5 | 113 | 121 | 120 | 120 | 131 | 124 | 115 | 110 | 110 | 116 | 115 | 113 | 106 | 107 | 111 | 114 | 104 | 105 | 104 | 104 | 104 | 104
6 | C[C@](O)(COc1ccc(C#N)cc1)C(=O)Nc1ccc(C#N)c(C(F)(F)F)c1 | 85.2 | 81.8 | 93 | 94.8 | 99.2 | 93.2 | 102 | 93.9 | 89.7 | 94.6 | 95.3 | 77.6 | 84.4 | 84.3 | 94.1 | 83.8 | 92.2 | 89 | 86.7 | 83.9 | 91 | 80.5 | 80.9 | 82.6 | 78.6 | 81.6 | 83.6 | 76.1 | 82.4 | 80.7 | 77.5 | 82.1 | 68.8
7 | CC1(C)CCC[C@]2(C)[C@H]3CC(=O)O[C@]3(C)CC[C@@H]12 | 118 | 115 | 114 | 114 | 116 | 110 | 115 | 116 | 110 | 107 | 99.1 | 121 | 120 | 122 | 120 | 119 | 124 | 119 | 109 | 109 | 111 | 93.5 | 110 | 115 | 119 | 116 | 112 | 113 | 105 | 107 | 108 | 97.5 | 92.4
